From patent US10065942B2, “Crystalline (2S)-3-[(3S,4S)-3-[(1R)-1-hydroxyethyl]-4-(4-methoxy-3-{[1-(5-methylpyridin-2-yl)azetidin-3-yl]oxy}phenyl)-3-methylpyrrolidin-1-yl]-3-oxopropane-1,2-diol” (Eli Lilly and Company, priority 2014, dated 2018)

Test system: chronic cyclophosphamide (CYP)-induced overactive bladder mouse model
Assay: Overactive Bladder In Vivo Model (chronic cyclophosphamide-induced OAB)
Conditions: for Mean Voiding Frequency (no./4 hr) / Mean Volume/Void: oral daily, day 8, female C57/Bl6 mice
Procedure: The in vivo effect of PDE4 inhibitors on OAB is studied with a chronic cyclophosphamide (CYP)-induced overactive bladder mouse model adapted from Boudes et al., Neurourol. Urodynam. 2011. In a typical study, female C57/Bl6 mice, approximately 20 grams in body weight (Harlan Laboratories, Inc., Indianapolis, Ind.) are used. Mice are randomized by body weight into groups one day before the start of the study. Mice are individually housed and maintained on a 12 hour light/dark cycle at 22° C. with ad lib access to food (TD 2014 with 0.72% Ca and 0.61% P, 990 IU/g D3, Teklad™, Madison, Wis.) and water. Animals receive cyclophosphamide (dissolved in physiological saline) i.p. administration at 100 mg/kg on days 1, 3, 5, and 7 to chronically induce OAB. The vehicle control group received daily vehicle (HEC 1%/Tween 80 0.25%/Antifoam 0.05%) administered orally. All other groups are administered orally tadalafil at 10 mg/kg in combination with 0.1, 1.0, or 10.0 mg/kg of test compound daily at a volume of 200 μl/mouse. On day 8, mice are housed in urine collection chambers with a filter paper placed underneath chamber. Prior to urine collection, gavages of 1 ml water are given to each mouse. Urine is collected from 6 pm to 10 pm (i.e. for 4 hrs). Gel cups (DietGel™ 76A) are supplied as water source during the 4 hour period. The filter paper is changed every hour. Voiding frequency and volume/void are calculated using Image J software (NIH). Data are statistically analyzed with JMP8® software (Cary, N. C.).
All treatment groups receive a fixed dose of 10 mg/kg of tadalafil.

[1] = Example 2 0.1 mg/kg + tadalafil 10 mg/kg
[2] = Example 2 1.0 mg/kg + tadalafil 10 mg/kg
[3] = Example 2 10.0 mg/kg + tadalafil 10 mg/kg
[4] = given with tadalafil 10 mg/kg, 0.1, 1.0, 10.0 mg/kg oral daily

Q: Which results are given for `COc1ccc([C@@H]2CN(C(=O)[C@@H](O)CO)C[C@@]2(C)[C@@H](C)O)cc1OC1CN(c2ccc(C)cn2)C1` [Example 2, (2S)-3-[(3S,4S)-3-[(1R)-1-hydroxyethyl]-4-(4-methoxy-3-{[1-(5-methylpyridin-2-yl)azetidin-3-yl]oxy}phenyl)-3-methylpyrrolidin-1-yl]-3-oxopropane-1,2-diol]?
A: Mean Voiding Frequency (no./4 hr) [1]: 10 no./4 hr; Mean Volume/Void [1]: 47.3 µL; Mean Voiding Frequency (no./4 hr) [2]: 8.61 no./4 hr; Mean Volume/Void [2]: 77.2 µL; Mean Voiding Frequency (no./4 hr) [3]: 8.38 no./4 hr; Mean Volume/Void [3]: 81.9 µL; effect on urinary frequency (in words) [4]: significantly reduces urinary frequency in a dose-dependent fashion; effect on volume/void (in words) [4]: increases of volume/void are also observed in a dose-dependent fashion
